Test results as given in ChEMBL document CHEMBL3588825, “Identification of Oxaphenalenone Ketals from the Ascomycete Fungus Neonectria sp” (J Nat Prod, 2015).
The source made the active and inactive calls.

Columns and labels:
Assay type in all cases: functional, cell-based
HeLa = experiment: Cytotoxicity against human HeLa cells at 50 uM after 90 mins by MTS assay
A549 = experiment: Cytotoxicity against human A549 cells at 50 uM after 90 mins by MTS assay
MCF7 = experiment: Cytotoxicity against human MCF7 cells at 50 uM after 90 mins by MTS assay
HCT-116 = experiment: Cytotoxicity against human HCT116 cells at 50 uM after 90 mins by MTS assay
SW480 = experiment: Cytotoxicity against human SW480 cells at 50 uM after 90 mins by MTS assay
T-24 = experiment: Cytotoxicity against human T24 cells at 50 uM after 90 mins by MTS assay

Measured: Activity

COc1cc2c3c4c(c(O)cc(C)c14)C(=O)O[C@@H]3[C@@H]1C[C@@H](C)O[C@]1(C[C@H]1CCC(=O)O1)O2
inactive: all assays above
